According to paper PMC4872591, “An evaluation of Minor Groove Binders as anti-Trypanosoma brucei brucei therapeutics” (European Journal of Medicinal Chemistry, 2016):
Where two headings read alike, the source gives them in different places. Marks after values point to notes of the source that are not given here.

Columns and labels:
HEK 293 cells = assay: HEK 293 cytotoxicity assay (AlamarBlue viability); type: cell-based, human; conditions: for SI (selectivity index): HEK 293 IC50 taken as 20 μM (10 μM estimated for compound 21) versus T. b. brucei IC50
Experimental: Compounds were tested in an AlamarBlue viability assay using fluorescent intensity as the output. Briefly, Human Embryonic Kidney cells (HEK 293) were cultured in DMEM (Dulbeccos Modified Eagle Medium) plus 10% Foetal Bovine Serum (FBS) in a humidified environment at 37 °C and 5% CO2. Cells were harvested at 80% confluence and plated into 384-well tissue culture treated black walled clear base plates at 2000 cells per well in a volume of 45 μl and incubated overnight to equilibrate. Five μl of compounds in serial dilution format, including Puromycin as a positive control and 0.4% DMSO as the negative control, were transferred into the plates containing the equilibrated HEK293 cells. The plates were incubated for a further 72 h before “flicking” the compound containing media out and replacing with 40 μL of 10% AlamarBlue® in DMEM without FBS. The assay plates were returned to the incubator for 6 h then the total fluorescent intensity determined at 535 nm excitation and 585 nm emission using the Perkin Elmer ENVISION 2101 Multilabel Reader. Fluorescent intensity values were normalized as percent inhibition in relation to the positive and negative controls of 5 μM Puromycin and 0.4% DMSO, respectively. The compounds were tested in two separate experiments each in duplicate point.

[1] = system: Bloodstream form T. b. brucei (Lister 427); assay: Trypanosoma brucei brucei Alamar Blue assay; type: cell-based; conditions: Trypanosoma brucei
Experimental: IC50 values against trypanosomes were determined by Alamar Blue assay. […] After this time, 20 μL of resazurin dye (Sigma–Aldrich) solution at 0.49 mM was added. […] Output was plotted using the IC50 determination algorithm of Prism 5.0 software (GraphPad). Three independent experiments were carried out in duplicate for each compound.

T. b. brucei = assay: Fluorescence microscopy, intracellular localisation in T. b. brucei; type: cell-based, Trypanosoma brucei brucei; conditions: 50 μM, 2 h, FITC and DsRed filters
Experimental: Fig. 6 Intracellular localisation of fluorescent MGB in T. b. brucei. Trypanosomes were treated for 2 h with 50 μM of MGB and viewed at 100 × magnification. N = nucleus; K = kinetoplast; arrow = other organelles. Bar = 10 μm.
T. b. brucei parasites (1 × 10^7 cell/mL) were treated with 50 μM of compound 32 for 2 h at 37 °C in a humidified, 5% CO2 atmosphere. After washing in PBS, an aliquot of cells was mixed with an equal volume of 2% w/v low melting point agarose (Sigma–Aldrich) and spread onto a slide by addition of a coverslip. Slides were viewed using a Zeiss Axioplan 2 Imaging epifluorescence microscope, equipped with a digital CCD camera (Hammatsu Photonics) and a Plan[…] 100 × oil-immersion NA 1.4 objective (Carl Zeiss). FITC (excitation 450–490 nm, beamsplitter 510 nm, emission 515–565 nm) and DsRed (excitation 545/25 nm, beamsplitter 570 nm, emission 605/70 nm) filter sets were used, and images acquired using Volocity imaging software (Improvision).

[2] = system: kinetoplast of trypanosome; set-up: method as in PMID 16723581; conditions: cited from earlier work
[3] = Table 1, Alamar Blue, 48 h + 24 h, all standard deviations less than 2%, read-out: IC50 against Trypanosoma brucei brucei
[4] = Table 2, read-out: Trypanosoma brucei brucei IC50
[5] = values given in nM, read-out: IC50 against T. b. brucei

IC50 [1, 3] [nM] | IC50 [1, 4] [nM] | IC50 [1, 5] [nM] | SMILES | % HEK 293 Inhibition at 20 μM (HEK 293 cells; 20 μM, 72 h, HEK 293) | SI (selectivity index) (HEK 293 cells) | other results
6.8 | 6.8 | < 40 | Cn1cc(NC(=O)c2cc(NC(=O)c3cc(NC(=O)c4cc5ccccc5cn4)cn3C)cn2C)cc1C(=O)NCCCN1CCOCC1 [Compound 8, N-[1-Methyl-5-({[1-methyl-5-({[1-methyl-5-({[3-(4-morpholinyl)propyl]amino}carbonyl)-1H-pyrrol-3-yl]amino}carbonyl)-1H-pyrrol-3-yl]amino}carbonyl)-1H-pyrrol-3-yl]-3-isoquinolinecarboxamide] | N/A (N/A is an IC50 value > 20 μM) | >2941 | –
40 | 40 | < 40 | CC(C)CCc1sc(NC(=O)c2cc(NC(=O)c3ccc(/C=C/c4ccc5ccccc5c4)cc3)cn2C)nc1C(=O)NCCN1CCOCC1 [Compound 20, 5-isopentyl-2-({[1-methyl-4-({4-[(E)-2-(2-naphthyl)ethenyl]benzoyl}amino)-1H-pyrrol-2-yl]carbonyl}amino)-N-[2-(4-morpholinyl)ethyl]-1,3-thiazole-4-carboxamide] | N/A (N/A is an IC50 value > 20 μM) | >500 | –
5.4 | 5.4 | < 40 | CC(C)CCc1sc(NC(=O)c2cc(NC(=O)c3cc(/C=C/c4ccc([N+](=O)[O-])cc4)cn3C)cn2C)nc1C(=O)NCCN1CCOCC1 [Compound 21, 5-isopentyl-2-[({1-methyl-4-[({1-methyl-4-[(E)-2-(4-nitrophenyl)ethenyl]-1H-pyrrol-2-yl}carbonyl)amino]-1H-pyrrol-2-yl}carbonyl)amino]-N-[2-(4-morpholinyl)ethyl]-1,3-thiazole-4-carboxamide] | – | >1851* | inhibition at 20 µM (HEK 293 cells; Homo sapiens, HEK293, 20 μM, 72 h, HEK 293): 54%; IC50 (HEK 293 cells; Homo sapiens, HEK293, read-out: estimated IC50 against HEK 293 cells): ~10000 nM
7.3 | 7.3 | < 40 | Cn1cc(NC(=O)c2cc(NC(=O)c3ccc(/C=C/c4ccc5nsnc5c4)cc3)cn2C)cc1C(=O)NCCN1CCOCC1 [Compound 28, 4-({4-[(E)-2-(2,1,3-benzothiadiazol-5-yl)ethenyl]benzoyl}amino)-1-methyl-N-[1-methyl-5-({[2-(4-morpholinyl)ethyl]amino}carbonyl)-1H-pyrrol-3-yl]-1H-pyrrole-2-carboxamide] | N/A (N/A is an IC50 value > 20 μM) | >2739 | –
19 | 19 | < 40 | Cn1cc(NC(=O)c2cc(NC(=O)c3ccc(/C=C/c4ccc5nonc5c4)cc3)cn2C)cc1C(=O)NCCN1CCOCC1 [Compound 29, 4-({4-[(E)-2-(2,1,3-benzoxadiazol-5-yl)ethenyl]benzoyl}amino)-1-methyl-N-[1-methyl-5-({[2-(4-morpholinyl)ethyl]amino}carbonyl)-1H-pyrrol-3-yl]-1H-pyrrole-2-carboxamide] | N/A (N/A is an IC50 value > 20 μM) | >1052 | –
5000 | – | – | CSc1ccc(/C=C/c2ccc3cc(C(=O)Nc4cc(C(=O)Nc5cc(C(=O)NCCN6CCOCC6)n(C)c5)n(C)c4)ccc3n2)cc1 [Compound 31, N-[1-methyl-5-({[1-methyl-5-({[2-(4-morpholinyl)ethyl]amino}carbonyl)-1H-pyrrol-3-yl]amino}carbonyl)-1H-pyrrol-3-yl]-2-{(E)-2-[4-(methylsulfanyl)phenyl]ethenyl}-6-quinolinecarboxamide] | – | – | –
170 | – | – | CN(C)c1ccc(/C=C/c2ccc(C(=O)Nc3cc(C(=O)Nc4cc(C(=O)NCCN5CCOCC5)n(C)c4)n(C)c3)cn2)cc1 [Compound 32, 6-{(E)-2-[4-(Dimethylamino)phenyl]ethenyl}-N-[1-methyl-5-({[1-methyl-5-({[2-(4-morpholinyl)ethyl]amino}carbonyl)-1H-pyrrol-3-yl]amino}carbonyl)-1H-pyrrol-3-yl]nicotinamide] | – | – | Intracellular localisation in the trypanosome (T. b. brucei): localisation to the nucleic acid rich regions of the nucleus and kinetoplast
– | – | 5 | N=C(N)c1ccc(/N=N/Nc2ccc(C(=N)N)cc2)cc1 [Diminazene, diminazene, reference compound] | – | – | –
– | – | – | N=C(N)c1ccc(-c2ccc(-c3ccc(C(=N)N)cc3)o2)cc1 [Furamidine, furamidine] | – | – | exposure time to destruction of the kinetoplast [2]: ≤ 24 h
– | – | – | COc1ccc(C[C@H](N)C(=O)N[C@H]2[C@@H](O)[C@H](n3cnc4c(N(C)C)ncnc43)O[C@@H]2CO)cc1 [Puromycin, reference compound] | – | – | IC50 (HEK 293 cells; Homo sapiens, HEK293, positive control, two separate independent experiments, read-out: IC50 against HEK 293 cells): 350 nM
– | – | – | N=C(N)c1ccc(OCCCCCOc2ccc(C(=N)N)cc2)cc1 [pentamidine] | – | – | exposure time to destruction of the kinetoplast [2]: ≤ 24 h
